Data from US20120196811A1 (priority 2009, published 2012).

System: broiler chickens with combined chronic mycotoxicosis (aflatoxin B1, ochratoxin A, T-2-mycotoxin, fumonisin B1 in feed)
Parameters: species or system broiler chickens of the Cobb-Avian-48 cross
Details: in vivo

OC[C@H]1O[C@@H](O[C@@H]2[C@@H](CO)OC(O)(CO)[C@H]2O)[C@H](O)[C@@H](O)[C@H]1O (mixture of isomers) [lactulose]
recovery of average daily weight gain per kilogram of component in the compound feed: 25%
